In ChEMBL document CHEMBL4219090, “Synthesis and biological evaluation of polyhydroxylated oxindole derivatives as potential antileishmanial agent” (Bioorg Med Chem Lett, 2018):
The source made the active and inactive calls. No cut-off for these calls is given here.

Key:
Leishmania donovani [1] = assay: Antileishmanial activity against Leishmania donovani MHOM/IN/1983/AG83 promastigotes transformed from splenic intracellular amastigotes of infected BALB/c mouse assessed as parasite survival at 16 uM after 48 hrs by MTT assay (reference value: 100%); type: functional; settings: MHOM/IN/1983/AG83, 48 h
Leishmania donovani [2] = assay: Antileishmanial activity against Leishmania donovani MHOM/IN/1983/AG83 promastigotes transformed from splenic intracellular amastigotes of infected BALB/c mouse assessed as parasite survival at 8 uM after 48 hrs by MTT assay (reference value: 100%); type: functional; settings: MHOM/IN/1983/AG83, 48 h
Leishmania donovani [3] = assay: Antileishmanial activity against Leishmania donovani MHOM/IN/1983/AG83 promastigotes transformed from splenic intracellular amastigotes of infected BALB/c mouse assessed as parasite survival at 32 uM after 48 hrs by MTT assay (reference value: 100%); type: functional; settings: MHOM/IN/1983/AG83, 48 h
Leishmania donovani [4] = assay: Antileishmanial activity against Leishmania donovani MHOM/IN/1983/AG83 promastigotes transformed from splenic intracellular amastigotes of infected BALB/c mouse after 48 hrs by MTT assay; type: functional, organism-based; settings: MHOM/IN/1983/AG83, 48 h
Leishmania donovani [5] = assay: Antileishmanial activity against Leishmania donovani MHOM/IN/1983/AG83 promastigotes transformed from splenic intracellular amastigotes of infected BALB/c mouse after 48 hrs by […]; type: functional, organism-based; settings: MHOM/IN/1983/AG83, 48 h
Leishmania donovani [6] = assay: Induction of apoptosis in Leishmania donovani MHOM/IN/1983/AG83 promastigotes transformed from splenic intracellular amastigotes of infected BALB/c mouse assessed as late apoptotic cells at 15 uM after 24 hrs by Annexin V-PE/7-AAD staining-based flow cytometric analysis relative to control; type: functional
Leishmania donovani [7] = assay: (§1) Induction of apoptosis in Leishmania donovani MHOM/IN/1983/AG83 promastigotes transformed from splenic intracellular amastigotes of infected BALB/c mouse assessed as viable cells at 15 uM after 48 hrs by Annexin V-PE/7-AAD staining-based flow cytometric analysis (reference value: 84.97%); type: functional
Leishmania donovani [8] = assay: Induction of apoptosis in Leishmania donovani MHOM/IN/1983/AG83 promastigotes transformed from splenic intracellular amastigotes of infected BALB/c mouse assessed as nuclei blebbing after 48 hrs by DAPI staining-based confocal laser scanning microscopic analysis; type: functional, organism-based
Leishmania donovani [9] = assay: Induction of apoptosis in Leishmania donovani MHOM/IN/1983/AG83 promastigotes transformed from splenic intracellular amastigotes of infected BALB/c mouse assessed as accumulation of lipid droplets in cytoplasm after 48 hrs by Nile red staining-based confocal laser scanning microscopic analysis; type: functional, organism-based
Leishmania donovani [10] = assay: Antileishmanial activity against Leishmania donovani MHOM/IN/1983/AG83 promastigotes transformed from splenic intracellular amastigotes of infected BALB/c mouse assessed as parasite survival at 64 uM after 48 hrs by MTT assay (reference value: 100%); type: functional; settings: MHOM/IN/1983/AG83, 48 h
[11] = Cytotoxicity against PHA-stimulated mouse splenocytes assessed as cell survival at 8 uM after 96 hrs by MTT assay (reference value: 100%); type: cell-based, Splenocyte; settings: read-out: Survival
Leishmania donovani [12] = assay: Induction of ROS generation in Leishmania donovani MHOM/IN/1983/AG83 promastigotes transformed from splenic intracellular amastigotes of infected BALB/c mouse at IC50 measured at 6 hrs by H2DCFDA probe-based flow cytometric analysis relative to control; type: functional
[13] = Cytotoxicity against PHA-stimulated mouse splenocytes assessed as cell survival at 64 uM after 96 hrs by MTT assay (reference value: 100%); type: cell-based, Splenocyte; settings: read-out: Survival
Leishmania donovani [14] = assay: (§2) Cell cycle arrest in Leishmania donovani MHOM/IN/1983/AG83 promastigotes transformed from splenic intracellular amastigotes of infected BALB/c mouse assessed as accumulation at sub-G0/G1 phase at IC50 after 24 hrs by propidium iodide staining-based flow cytometric analysis (reference value: 2.61 +/- 0.33%); type: functional
Leishmania donovani [15] = assay: Antileishmanial activity against Leishmania donovani MHOM/IN/1983/AG83 amastigotes infected in BALB/c mouse peritoneal macrophages at 1 uM after 48 hrs by phase contrast microscopic analysis relative to control; type: functional
[16] = Cytotoxicity against PHA-stimulated mouse splenocytes assessed as cell survival at 32 uM after 96 hrs by MTT assay (reference value: 100%); type: cell-based, Splenocyte; settings: read-out: Survival
Leishmania donovani [17] = assay: as §1, with “late apoptotic” for “viable”, “2.55 +/- 0.49%)” for “84.97%)”; type: functional
Leishmania donovani [18] = assay: as §2, with “48” for “24”; type: functional
Leishmania donovani [19] = assay: Induction of apoptosis in Leishmania donovani MHOM/IN/1983/AG83 promastigotes transformed from splenic intracellular amastigotes of infected BALB/c mouse assessed as viable cells at 15 uM after 24 hrs by Annexin V-PE/7-AAD staining-based flow cytometric analysis relative to control; type: functional
Leishmania donovani [20] = assay: Induction of apoptosis in Leishmania donovani MHOM/IN/1983/AG83 promastigotes transformed from splenic intracellular amastigotes of infected BALB/c mouse assessed as early apoptotic cells at 15 uM by Annexin V-PE/7-AAD staining-based flow cytometric analysis; type: functional, organism-based; settings: TDE = time-dependent effect
Leishmania donovani [21] = assay: Cell cycle arrest in Leishmania donovani MHOM/IN/1983/AG83 promastigotes transformed from splenic intracellular amastigotes of infected BALB/c mouse assessed as accumulation at sub-G0/G1 phase at IC50 by propidium iodide staining-based flow cytometric analysis; type: functional, organism-based; settings: TDE = time-dependent effect
Leishmania donovani [22] = assay: Induction of ROS generation in Leishmania donovani MHOM/IN/1983/AG83 promastigotes transformed from splenic intracellular amastigotes of infected BALB/c mouse at IC50 by H2DCFDA probe-based flow cytometric analysis; type: functional, organism-based; settings: TDE = time-dependent effect
Leishmania donovani [23] = assay: Induction of apoptosis in Leishmania donovani MHOM/IN/1983/AG83 promastigotes transformed from splenic intracellular amastigotes of infected BALB/c mouse assessed as early apoptotic cells at 15 uM after 24 hrs by Annexin V-PE/7-AAD staining-based flow cytometric analysis relative to control; type: functional
Leishmania donovani [24] = assay: Antileishmanial activity against Leishmania donovani MHOM/IN/1983/AG83 promastigotes transformed from splenic intracellular amastigotes of infected BALB/c mouse assessed as parasite survival at 128 uM after 48 hrs by MTT assay (reference value: 100%); type: functional; settings: MHOM/IN/1983/AG83, 48 h
Leishmania donovani [25] = assay: Induction of nitric oxide generation in Leishmania donovani MHOM/IN/1983/AG83 amastigotes infected in BALB/c mouse peritoneal macrophages at IC50 by Griess reagent based analysis relative to control; type: functional
[26] = Cytotoxicity against PHA-stimulated mouse splenocytes assessed as cell survival at 128 uM after 96 hrs by MTT assay (reference value: 100%); type: cell-based, Splenocyte; settings: read-out: Survival
Leishmania donovani [27] = assay: Induction of apoptosis in Leishmania donovani MHOM/IN/1983/AG83 promastigotes transformed from splenic intracellular amastigotes of infected BALB/c mouse assessed as chromatin condensation after 48 hrs by DAPI staining-based confocal laser scanning microscopic analysis; type: functional, organism-based
[28] = Cytotoxicity against PHA-stimulated mouse splenocytes assessed as cell survival at 16 uM after 96 hrs by MTT assay (reference value: 100%); type: cell-based, Splenocyte; settings: read-out: Survival
Leishmania donovani [29] = assay: Cell cycle arrest in Leishmania donovani MHOM/IN/1983/AG83 promastigotes transformed from splenic intracellular amastigotes of infected BALB/c mouse assessed as accumulation at G0/G1 phase at IC50 after 48 hrs by propidium iodide staining-based flow cytometric analysis (reference value: 81.06%); type: functional
Leishmania donovani [30] = assay: Induction of apoptosis in Leishmania donovani MHOM/IN/1983/AG83 promastigotes transformed from splenic intracellular amastigotes of infected BALB/c mouse assessed as necrotic cells at 15 uM after 48 hrs by Annexin V-PE/7-AAD staining-based flow cytometric analysis (reference value: 1.51%); type: functional
Leishmania donovani [31] = assay: as §1, with “early apoptotic” for “viable”, “10.98 +/- 1.22%)” for “84.97%)”; type: functional
Leishmania donovani [32] = assay: Induction of apoptosis in Leishmania donovani MHOM/IN/1983/AG83 promastigotes transformed from splenic intracellular amastigotes of infected BALB/c mouse assessed as necrotic cells at 15 uM after 24 hrs by Annexin V-PE/7-AAD staining-based flow cytometric analysis relative to control; type: functional
Leishmania donovani [33] = assay: Induction of apoptosis in Leishmania donovani MHOM/IN/1983/AG83 promastigotes transformed from splenic intracellular amastigotes of infected BALB/c mouse assessed as late apoptotic cells at 15 uM by Annexin V-PE/7-AAD staining-based flow cytometric analysis; type: functional, organism-based; settings: TDE = time-dependent effect

**Q.** With `COc1ccc(CN2C(=O)C(=C(c3ccc(O)cc3)c3ccc(O)cc3)c3ccccc32)cc1` as the compound, how does the survival at 16 µM (Leishmania donovani [1]) read?
**A.** Its survival at 16 µM is 81%.

**Q.** What about the survival at 8 µM (Leishmania donovani [2]) of the same compound?
**A.** Its survival at 8 µM is 96.4%.

**Q.** And the survival at 32 µM (Leishmania donovani [3])?
**A.** Its survival at 32 µM is 66.1%.

**Q.** What about the IC50 (Leishmania donovani [4]) of the same compound?
**A.** Its IC50 is 47.2 µM.

**Q.** What does the source list for `CCCCCCCCCCCCCCCCOP(=O)([O-])OCC[N+](C)(C)C` [MILTEFOSINE]?
**A.** IC50 (Leishmania donovani [5]): 21 µM; IC50 (Leishmania donovani [4]): 21 µM

**Q.** What does the source list for `O=C1C(=C(c2ccc(O)cc2)c2ccc(O)cc2)c2cc(/C=C/c3ccc(O)c(O)c3)ccc2N1Cc1ccc(O)cc1`?
**A.** Activity (Leishmania donovani [6]): 14.76%; Activity (Leishmania donovani [7]): 38.43%; Activity (Leishmania donovani [8]): Active; Activity (Leishmania donovani [9]): Active; survival at 64 µM (Leishmania donovani [10]): 17.9%; viability at 96 h, 8 µM [11]: 96.6%; fold change (FC) (Leishmania donovani [12]): >3; viability at 96 h, 64 µM [13]: 87.3%; Activity (Leishmania donovani [14]): 6.79 - 6.97%; survival at 16 µM (Leishmania donovani [1]): 46.7%; Activity (Leishmania donovani [15]): 50%; viability at 96 h, 32 µM [16]: 90.5%; survival at 8 µM (Leishmania donovani [2]): 96.2%; Activity (Leishmania donovani [17]): 15.39%; Activity (Leishmania donovani [18]): 8.86%; Activity (Leishmania donovani [19]): 45.2%; Activity (Leishmania donovani [20]): Tde; survival at 32 µM (Leishmania donovani [3]): 31.6%; Activity (Leishmania donovani [21]): Tde; Activity (Leishmania donovani [22]): Tde; Activity (Leishmania donovani [23]): 35.01%; survival at 128 µM (Leishmania donovani [24]): 5.42%; fold change (FC) (Leishmania donovani [25]): 3; viability at 96 h, 128 µM [26]: 85.2%; IC50 (Leishmania donovani [4]): 15 µM; Activity (Leishmania donovani [27]): Active; viability at 96 h, 16 µM [28]: 92.3%; Activity (Leishmania donovani [29]): 71.37%; Activity (Leishmania donovani [30]): 4.09%; Activity (Leishmania donovani [31]): 42.08%; Activity (Leishmania donovani [32]): 5.03%; Activity (Leishmania donovani [33]): Tde

**Q.** Which results are given for `O=C1C(=C(c2ccc(O)cc2)c2ccc(O)cc2)c2ccccc2N1Cc1ccc(O)cc1`?
**A.** survival at 16 µM (Leishmania donovani [1]): 96.7%; survival at 8 µM (Leishmania donovani [2]): 98.3%; survival at 32 µM (Leishmania donovani [3]): 92%; IC50 (Leishmania donovani [4]): 200 µM

**Q.** With `COc1ccc(CN2C(=O)C(=C(c3ccc(O)cc3)c3ccc(O)cc3)c3cc(/C=C/c4ccc(OC)c(OC)c4)ccc32)cc1` as the compound, how does the survival at 16 µM (Leishmania donovani [1]) read?
**A.** The survival at 16 µM was 70.6%.

**Q.** What about the survival at 8 µM (Leishmania donovani [2]) of the same compound?
**A.** The survival at 8 µM was 79.2%.

**Q.** What about the survival at 32 µM (Leishmania donovani [3]) of the same compound?
**A.** The survival at 32 µM was 53.7%.

**Q.** What about the IC50 (Leishmania donovani [4]) of the same compound?
**A.** The IC50 was 31 µM.

**Q.** What does the source list for `COc1ccc(CN2C(=O)C(=C(c3ccc(O)cc3)c3ccc(O)cc3)c3cc(/C=C/c4ccc(C)c(C)c4)ccc32)cc1`?
**A.** survival at 16 µM (Leishmania donovani [1]): 95.5%; survival at 8 µM (Leishmania donovani [2]): 97.2%; survival at 32 µM (Leishmania donovani [3]): 93.7%; IC50 (Leishmania donovani [4]): 225 µM

**Q.** Which survival at 16 µM (Leishmania donovani [1]) does the source give for `COc1ccc(CN2C(=O)C(=C(c3ccc(O)cc3)c3ccc(O)cc3)c3cc(/C=C/c4ccc(F)c(F)c4)ccc32)cc1` here?
**A.** Its survival at 16 µM is 96%.

**Q.** What about the survival at 8 µM (Leishmania donovani [2]) of the same compound?
**A.** Its survival at 8 µM is 97.5%.

**Q.** What about the survival at 32 µM (Leishmania donovani [3]) of the same compound?
**A.** The survival at 32 µM was 93.2%.

**Q.** And the IC50 (Leishmania donovani [4])?
**A.** The IC50 was 220 µM.
